From US20230146870A1, “METHOD TO QUANTIFY AFFINITY AND SELECTIVITY OF SMALL MOLECULES FOR PROTEINS IN LIVING CELLS” (Ohio State Innovation Foundation, priority 2021, published 2023)
Entries after “also recorded” stand apart in the source; their conditions may differ.

What was measured:
[1] = target: native (untagged) murine PKCγ (Mus musculus, UniProt P63318); assay: FPCBA competition with probe 1, native PKCγ in HEK293 cells; format: binding; design: For coexpression of full-length unmodified PKC proteins with mVenus as an independent marker; expressed in transfected cells; host or cells: HEK293 (transient, pIRES-mVenus); conditions: read-out: Cellular Ki for native PKCγ (95% confidence interval); probe 1 400 nM, BIM1 2 μM, 2 h at 37° C.
[2] = target: T1, native (untagged) murine PKCβI (Mus musculus, UniProt P68404); assay: FPCBA competition with probe 1, native PKCβI in HEK293 cells; format: binding; conditions: read-out: Cellular Ki for native PKCβI (95% confidence interval); probe 1 400 nM, BIM1 2 μM, 2 h at 37° C.
T1 construct: For coexpression of full-length unmodified PKC proteins with mVenus as an independent marker; expressed in transfected cells; host or cells: HEK293 (transient, pIRES-mVenus)
T1 sequence (P68404 2-673 isoform P68404-2): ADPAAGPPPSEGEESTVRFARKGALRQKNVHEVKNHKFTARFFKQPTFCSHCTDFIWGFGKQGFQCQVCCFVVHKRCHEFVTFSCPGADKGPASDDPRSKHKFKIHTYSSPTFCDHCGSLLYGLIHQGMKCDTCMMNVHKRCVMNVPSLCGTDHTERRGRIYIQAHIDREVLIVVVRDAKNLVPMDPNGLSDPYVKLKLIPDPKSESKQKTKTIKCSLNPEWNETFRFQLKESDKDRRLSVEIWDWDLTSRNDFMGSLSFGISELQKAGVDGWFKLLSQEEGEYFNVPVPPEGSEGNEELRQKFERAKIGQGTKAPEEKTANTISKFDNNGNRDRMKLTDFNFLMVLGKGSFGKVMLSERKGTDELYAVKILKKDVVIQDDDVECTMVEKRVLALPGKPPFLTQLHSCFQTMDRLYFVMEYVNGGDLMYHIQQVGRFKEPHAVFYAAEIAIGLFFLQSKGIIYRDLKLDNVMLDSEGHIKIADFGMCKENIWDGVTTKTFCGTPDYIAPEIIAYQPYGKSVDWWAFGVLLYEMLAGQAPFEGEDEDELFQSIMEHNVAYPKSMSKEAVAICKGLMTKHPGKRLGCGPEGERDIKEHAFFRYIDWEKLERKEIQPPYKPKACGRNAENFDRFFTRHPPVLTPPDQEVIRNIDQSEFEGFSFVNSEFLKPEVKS

PKCε = PKCε (Homo sapiens, UniProt Q02156); conditions: radiolabeled PDBu at 4° C.; read-out: Biochemical Ki, PKCε; cited from earlier work
Sequence of PKCε (Q02156 whole entry): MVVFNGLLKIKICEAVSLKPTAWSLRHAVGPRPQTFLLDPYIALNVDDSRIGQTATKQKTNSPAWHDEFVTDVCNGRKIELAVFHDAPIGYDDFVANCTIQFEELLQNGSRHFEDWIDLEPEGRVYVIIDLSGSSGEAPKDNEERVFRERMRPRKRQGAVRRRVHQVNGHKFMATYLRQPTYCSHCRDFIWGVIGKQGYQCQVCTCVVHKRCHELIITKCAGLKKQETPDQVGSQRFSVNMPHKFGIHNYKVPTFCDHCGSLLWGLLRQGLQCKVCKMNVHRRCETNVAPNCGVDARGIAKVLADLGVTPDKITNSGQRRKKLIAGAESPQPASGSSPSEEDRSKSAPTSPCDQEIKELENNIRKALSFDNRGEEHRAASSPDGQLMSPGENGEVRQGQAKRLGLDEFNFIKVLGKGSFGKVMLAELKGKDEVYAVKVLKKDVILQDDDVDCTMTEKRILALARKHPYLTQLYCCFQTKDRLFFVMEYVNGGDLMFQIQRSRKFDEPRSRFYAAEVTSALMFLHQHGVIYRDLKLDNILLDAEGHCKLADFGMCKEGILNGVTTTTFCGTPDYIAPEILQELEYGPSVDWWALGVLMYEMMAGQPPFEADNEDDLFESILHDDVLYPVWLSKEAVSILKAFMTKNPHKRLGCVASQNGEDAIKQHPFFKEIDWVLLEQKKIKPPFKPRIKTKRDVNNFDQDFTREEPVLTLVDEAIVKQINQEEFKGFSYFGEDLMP

PKCζ = PKCζ (Homo sapiens, UniProt Q05513); conditions: radiolabeled PDBu at 4° C.; cited from earlier work
Sequence of PKCζ (Q05513 whole entry): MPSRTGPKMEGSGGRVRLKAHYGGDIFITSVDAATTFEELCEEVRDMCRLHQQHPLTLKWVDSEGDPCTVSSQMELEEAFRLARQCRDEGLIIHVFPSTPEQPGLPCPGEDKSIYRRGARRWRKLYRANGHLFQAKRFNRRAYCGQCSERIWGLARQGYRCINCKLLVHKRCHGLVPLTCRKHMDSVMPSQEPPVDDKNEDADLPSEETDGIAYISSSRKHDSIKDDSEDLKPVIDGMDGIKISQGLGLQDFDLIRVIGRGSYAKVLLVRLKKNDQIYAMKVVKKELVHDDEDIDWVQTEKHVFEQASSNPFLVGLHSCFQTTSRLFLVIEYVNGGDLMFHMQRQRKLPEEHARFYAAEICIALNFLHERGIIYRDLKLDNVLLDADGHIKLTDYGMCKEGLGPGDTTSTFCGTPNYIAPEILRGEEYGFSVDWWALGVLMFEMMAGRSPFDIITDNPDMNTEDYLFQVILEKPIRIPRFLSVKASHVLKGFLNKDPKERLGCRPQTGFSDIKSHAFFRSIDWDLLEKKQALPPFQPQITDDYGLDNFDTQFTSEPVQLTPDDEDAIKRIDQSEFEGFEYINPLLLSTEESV

[3] = target: native (untagged) murine PKCθ (Mus musculus, UniProt Q02111); assay: FPCBA saturation binding of probe 1, native PKCθ (IRES-mVenus) in HEK293 cells
Sequence of native (untagged) murine PKCθ (Q02111 whole entry): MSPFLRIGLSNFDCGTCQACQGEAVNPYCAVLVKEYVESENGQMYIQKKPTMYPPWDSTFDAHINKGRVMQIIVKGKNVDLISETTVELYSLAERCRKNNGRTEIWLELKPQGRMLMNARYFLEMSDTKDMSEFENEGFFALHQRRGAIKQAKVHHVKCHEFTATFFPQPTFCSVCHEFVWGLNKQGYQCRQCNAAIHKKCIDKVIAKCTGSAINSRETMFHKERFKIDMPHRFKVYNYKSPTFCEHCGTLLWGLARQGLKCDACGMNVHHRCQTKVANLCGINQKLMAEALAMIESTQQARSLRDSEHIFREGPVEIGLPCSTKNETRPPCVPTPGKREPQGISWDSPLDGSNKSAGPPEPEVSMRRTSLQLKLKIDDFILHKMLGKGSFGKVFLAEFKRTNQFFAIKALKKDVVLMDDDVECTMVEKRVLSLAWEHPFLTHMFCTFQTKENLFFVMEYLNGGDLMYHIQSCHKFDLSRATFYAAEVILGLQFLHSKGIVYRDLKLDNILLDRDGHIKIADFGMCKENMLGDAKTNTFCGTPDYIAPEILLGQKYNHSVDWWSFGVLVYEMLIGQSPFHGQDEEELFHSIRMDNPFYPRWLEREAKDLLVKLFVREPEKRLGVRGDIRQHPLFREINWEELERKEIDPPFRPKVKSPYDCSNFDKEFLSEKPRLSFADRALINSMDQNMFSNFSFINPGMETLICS

[4] = target: T2, native (untagged) murine PKCζ (Mus musculus, UniProt Q02956); assay: FPCBA saturation binding of probe 1, native PKCζ (IRES-mVenus) in HEK293 cells; conditions: BIM1 2 μM, 2 h at 37° C., 4% FBS
T2 sequence (Q02956 1-592): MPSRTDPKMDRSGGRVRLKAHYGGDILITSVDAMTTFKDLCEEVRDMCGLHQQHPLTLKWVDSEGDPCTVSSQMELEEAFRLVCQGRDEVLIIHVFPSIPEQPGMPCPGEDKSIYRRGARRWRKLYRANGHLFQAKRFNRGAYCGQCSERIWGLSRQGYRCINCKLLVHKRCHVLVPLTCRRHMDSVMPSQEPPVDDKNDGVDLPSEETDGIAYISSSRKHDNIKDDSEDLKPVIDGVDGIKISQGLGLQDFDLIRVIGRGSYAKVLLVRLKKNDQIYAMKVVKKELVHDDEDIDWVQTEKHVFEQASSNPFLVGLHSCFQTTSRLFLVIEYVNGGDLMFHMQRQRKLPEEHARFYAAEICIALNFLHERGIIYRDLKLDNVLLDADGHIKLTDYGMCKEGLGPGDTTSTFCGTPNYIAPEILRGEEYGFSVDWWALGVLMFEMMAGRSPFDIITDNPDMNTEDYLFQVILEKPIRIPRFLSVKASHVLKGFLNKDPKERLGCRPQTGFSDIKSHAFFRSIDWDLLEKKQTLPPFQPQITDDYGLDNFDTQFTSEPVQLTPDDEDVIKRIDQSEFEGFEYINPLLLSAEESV

[5] = target: T3, native (untagged) murine PKCε (Mus musculus, UniProt P16054); assay: FPCBA saturation binding of probe 1, native PKCε (IRES-mVenus) in HEK293 cells
T3 sequence (P16054 1-737): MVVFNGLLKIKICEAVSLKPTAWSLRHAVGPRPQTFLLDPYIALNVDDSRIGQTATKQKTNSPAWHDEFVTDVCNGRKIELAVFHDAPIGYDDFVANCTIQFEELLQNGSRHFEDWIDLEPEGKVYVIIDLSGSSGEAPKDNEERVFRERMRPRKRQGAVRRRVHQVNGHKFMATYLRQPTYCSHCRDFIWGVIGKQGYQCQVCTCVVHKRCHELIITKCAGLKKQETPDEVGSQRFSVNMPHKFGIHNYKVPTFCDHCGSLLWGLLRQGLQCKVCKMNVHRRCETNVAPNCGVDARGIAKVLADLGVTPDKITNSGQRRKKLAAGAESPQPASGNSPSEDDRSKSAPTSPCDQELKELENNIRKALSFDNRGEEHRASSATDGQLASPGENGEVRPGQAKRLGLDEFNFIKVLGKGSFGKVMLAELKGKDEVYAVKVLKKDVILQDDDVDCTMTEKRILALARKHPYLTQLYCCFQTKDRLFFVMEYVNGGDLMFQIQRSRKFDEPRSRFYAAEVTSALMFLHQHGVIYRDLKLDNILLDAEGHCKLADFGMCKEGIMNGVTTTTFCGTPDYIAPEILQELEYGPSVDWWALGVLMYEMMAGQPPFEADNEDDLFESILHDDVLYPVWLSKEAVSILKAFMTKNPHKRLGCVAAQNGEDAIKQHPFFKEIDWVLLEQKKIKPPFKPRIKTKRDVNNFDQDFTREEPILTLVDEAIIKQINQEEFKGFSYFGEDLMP

murine PKCβI-mVenus = target: T4, murine PKCβI-mVenus (Mus musculus, UniProt P68404); assay: FPCBA saturation binding, HEK293 cells expressing PKCβI-mVenus (Example 3)
T4 construct: fused on or other part: mVenus at the C-terminus
T4 sequence (P68404 2-621 limits assumed): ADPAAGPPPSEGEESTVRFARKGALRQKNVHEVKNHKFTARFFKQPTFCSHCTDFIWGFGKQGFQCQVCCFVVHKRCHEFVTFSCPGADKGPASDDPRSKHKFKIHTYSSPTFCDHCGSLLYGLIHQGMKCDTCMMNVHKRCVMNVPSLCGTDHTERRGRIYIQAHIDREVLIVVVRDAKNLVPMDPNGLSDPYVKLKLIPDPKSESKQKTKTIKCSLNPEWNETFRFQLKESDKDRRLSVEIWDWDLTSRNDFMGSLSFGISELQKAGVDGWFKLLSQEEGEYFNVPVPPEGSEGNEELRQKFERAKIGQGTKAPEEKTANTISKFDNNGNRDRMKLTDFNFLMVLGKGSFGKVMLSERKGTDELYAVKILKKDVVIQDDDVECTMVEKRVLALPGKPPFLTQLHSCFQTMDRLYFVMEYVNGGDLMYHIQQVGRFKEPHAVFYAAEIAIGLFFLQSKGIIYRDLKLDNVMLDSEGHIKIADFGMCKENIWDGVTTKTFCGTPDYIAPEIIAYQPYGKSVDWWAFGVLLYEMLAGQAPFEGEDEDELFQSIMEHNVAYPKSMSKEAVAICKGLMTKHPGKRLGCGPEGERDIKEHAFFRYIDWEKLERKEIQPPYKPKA
Text: To investigate the potential for quantitative analysis of binding to PKCs expressed in cells, we evaluated whether 1-3 could readily achieve equilibrium, which is necessary for measurements of cellular equilibrium dissociation constants (Kd).

murine PKCη-mVenus = murine PKCη-mVenus (Mus musculus, UniProt P23298); assay: FPCBA saturation binding of probe 1, HEK293 cells expressing PKCη-mVenus (Example 3)
Sequence of murine PKCη-mVenus (P23298 whole entry): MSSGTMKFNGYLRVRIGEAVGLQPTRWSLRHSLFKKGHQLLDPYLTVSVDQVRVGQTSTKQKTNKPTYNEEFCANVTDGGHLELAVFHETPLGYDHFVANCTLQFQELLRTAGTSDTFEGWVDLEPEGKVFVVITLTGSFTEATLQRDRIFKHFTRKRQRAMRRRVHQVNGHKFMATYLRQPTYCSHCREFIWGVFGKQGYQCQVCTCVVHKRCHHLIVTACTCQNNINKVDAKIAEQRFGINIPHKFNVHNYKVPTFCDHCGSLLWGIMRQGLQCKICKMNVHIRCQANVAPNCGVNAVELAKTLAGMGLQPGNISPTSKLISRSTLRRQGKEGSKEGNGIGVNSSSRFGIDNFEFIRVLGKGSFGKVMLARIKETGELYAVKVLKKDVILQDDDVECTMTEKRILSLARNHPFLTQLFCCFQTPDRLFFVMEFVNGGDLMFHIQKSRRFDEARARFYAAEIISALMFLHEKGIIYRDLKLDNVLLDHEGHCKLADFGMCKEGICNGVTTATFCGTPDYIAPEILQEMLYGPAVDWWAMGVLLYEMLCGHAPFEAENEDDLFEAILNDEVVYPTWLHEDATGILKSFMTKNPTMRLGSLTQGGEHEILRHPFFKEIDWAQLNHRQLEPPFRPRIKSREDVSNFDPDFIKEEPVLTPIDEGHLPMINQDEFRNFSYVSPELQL

murine PKCζ-mVenus = murine PKCζ-mVenus (Mus musculus, UniProt Q02956); assay: FPCBA saturation binding of probe 1, HEK293 cells expressing PKCζ-mVenus (Example 3); conditions: BIM1 2 μM, 2 h at 37° C., 4% FBS

Compound	Ki [1] [µM]	Ki [2] [µM]	Ki (PKCε) [µM]	Biochemical Ki, PKCζ (PKCζ)	Kd [3] [µM]	Cellular Kd for probe, native PKCζ [4]	Kd [5] [µM]	median blue fluorescence of cells expressing high levels of PKCβI-mVenus vs non-transfected cells (murine PKCβI-mVenus; 1 at 1 μM, 2 h, BIM1 2 μM)	Kd (murine PKCβI-mVenus; BIM1 2 μM, 2 h at 37° C., 4% FBS, read-out: Cellular Kd for probe, PKCβI-mVenus) [µM]	signal-to-background (S/B) (murine PKCβI-mVenus; with BIM1, 1.25 μM probe)	improvement of apparent cellular affinity for PKCβI by BIM1 (murine PKCβI-mVenus; with vs without BIM1) [fold]	Kd (murine PKCη-mVenus) [µM]	Cellular Kd for probe, PKCζ-mVenus (murine PKCζ-mVenus)
CCC/C=C/C=C/C(=O)O[C@H]1/C(=C/C(=O)OC)C[C@H]2C[C@H]([C@@H](C)O)OC(=O)C[C@H](O)C[C@@H]3C[C@H](OC(C)=O)C(C)(C)[C@](O)(C[C@@H]4C/C(=C/C(=O)OC)C[C@H](/C=C/C(C)(C)[C@]1(O)O2)O4)O3 [bryostatin 1]	0.008	0.004	0.003	No binding	–	–	–	–	–	–	–	–	–
CCCCCCN(CCCCCCCCCCCCNC(=O)c1cc2cc(F)c(O)c(F)c2oc1=O)C(=O)O[C@@]12[C@H](O)[C@@H](C)[C@@]3(O)[C@@H](C=C(CO)C[C@]4(O)C(=O)C(C)=C[C@@H]34)[C@@H]1C2(C)C [probe 1, (1aR,1bS,4aR,7aS,7bS,8R,9R,9aS)-4a,7b,9-trihydroxy-3-(hydroxymethyl)-1,1,6,8-tetramethyl-5-oxo-1,1a,1b,4,4a,5,7a,7b,8,9-decahydro-9aH-cyclopropa[3,4]benzo[1,2-e]azulen-9a-yl (12-(6,8-difluoro-7-hydroxy-2-oxo-2H-chromene-3-carboxamido)dodecyl)(hexyl)carbamate]	–	–	–	–	1.05 ± 0.125	did not bind; also recorded: No binding	0.568 ± 0.141	ca. 4 fold	0.2	2.9	~2	0.25 ± 0.036	No binding
